These results are taken from US11058690B2, “Use of cytochrome bc1 complex inhibitor in preparing pharmaceutical composition” (BEIJING WEILANZHIYUAN MEDICAL TECHNOLOGY CO., LTD., priority 2017, dated 2021).

Structures are written as SMILES.

In assay [1] the test system is Kunming male mice. The assay is described as follows: acetic acid writhing test on mice. The format is in vivo, mouse. Conditions: for Number of writhing times: within 30 min. (In general: In writhing tests, fewer writhes than in controls are read as antinociception.)
Assay [2] has as its system Kunming female mice. The assay is described as follows: oxytocin-induced dysmenorrhea model in mice (diethylstilbestrol sensitization). The format is in vivo, mouse. Conditions: Table 9, positive control 50 mg/Kg intraperitoneal. The protocol: (§1) A mouse dysmenorrhea model was established with reference to Yang L., Cao Z., Yu B. & Chai C. An in vivo mouse model of primary dysmenorrhea. Exp Anim. 2015, August 64, 295-303. Adult healthy Kunming female mice were randomly grouped, 10 mice in each group. Experimental mice were intragastrically given diethylstilbestrol 0.2 mg daily for 12 days. Different kinds and dosages of the inhibitors of the cytochrome bc1 complex were given intraperitoneally or intragastrically 30 min after the last administration. Indometacin (50 mg/kg) was injected intraperitoneally as positive control, PGF2α (1.3 mg/kg) or oxytocin (20 U/kg) was injected intraperitoneally 1 h later, and the writhe starting time (reaction latency) and the number of writhing times within 30 min were observed and recorded.

Assay [3] relates to Kunming female mice. The assay is described as follows: PGF2α-induced dysmenorrhea model in mice (diethylstilbestrol sensitization). Conditions: for Number of writhing times: within 30 min. The format is in vivo, mouse. Here is the method: as §1
The test system of assay [4] is mice. The assay is described as follows: xylene-induced mouse ear swelling test. Conditions: 10 mg/Kg. In kind it is in vivo. The protocol:
Fifty healthy adult male mice were randomly divided into 5 groups. […] […] One hour after administration, 20 μL of xylene was evenly applied to both sides of the right ear of mouse, and xylene was not applied to the left ear as self control. One hour later, the two ears were cut off, and two ear pieces were removed from the same parts of the two ears with a 6 mm hole punch. The two ear pieces were weighed on a precision balance, and the swelling degree (right ear piece weight-left ear piece weight) and swelling inhibition rate (right ear piece weight-left ear piece weight)/left ear piece weight×100%) were calculated.

Assay [5] has as its system SD rats. The assay is described as follows: carrageenan-induced rat paw swelling test. In kind it is in vivo. Conditions: 4 mg/Kg positive control. Here is the method:
Eighteen healthy adult male mice were randomly divided into 3 groups. FAPM (100 mg/kg) was administered intraperitoneally once a day for 3 consecutive days. The control group was injected with the same amount of solvent, and the positive drug dexamethasone (4 mg/kg) was administered intragastrically once a day for 3 consecutive days. Thirty minutes after the last administration, 0.1 mL of 1% carrageenan was injected subcutaneously into the right hind paw of each rat, and the plantar thickness was measured before injection and 1, 2 and 3 hours after injection. Three hours later, the rats were sacrificed by dislocation. The feet were cut off from the knee joints and weighed on a precision balance. The swelling degree of the paw (right foot weight-left foot weight) was calculated.
Background: Carrageenan injected into the paw causes an acute inflammation.

Setting [6] is: Table 5, positive control 50 mg/Kg intraperitoneal.
The mark [7] stands for this setting: Table 8, positive control 50 mg/Kg intraperitoneal.

As for `COc1ccc2c(c1)c(CC(=O)O)c(C)n2C(=O)c1ccc(Cl)cc1` [Indomethacin, reference compound], the Writhe starting time in assay [1] (Table 3, 50 mg/Kg intraperitoneal) was found to be 4.6 ± 0.8 min; in assay [1] (setting [6]), 3.4 ± 1.0 min; in assay [2] it was 3.5 ± 1.0; in assay [3] (Table 7, 50 mg/Kg intraperitoneal), 1.89 ± 0.6 min; in assay [3] (setting [7]), 2.1 ± 1.2 min. In addition, the “Number of writhing times” value in assay [1] (Table 3, 50 mg/Kg intraperitoneal, 1 hour before acetic acid) is given as 15.8 ± 3.9; in assay [1] (setting [6]), 24.8 ± 4.8; in assay [2] (oxytocin (20 U/kg), within 30 min) it was 14.7 ± 1.4; in assay [3] (Table 7, 50 mg/Kg intraperitoneal, 1 h before PGF2α (1.3 mg/kg)), 15.0 ± 2.1; in assay [3] (setting [7]), 16.8 ± 2.5. In addition, the “ear swelling degree versus control group” value in assay [4] is given as “no statistical difference”. This molecule also registered an Ear swelling in assay [4] (positive control intraperitoneal, 1 hour after xylene) of 12 ± 3.74 mg. Also, in assay [5] (1 h after carrageenan), the “Paw swelling thickness 1 h” value is reported as 5.52 ± 0.39 mm. In addition, the “Paw swelling thickness 2 h” value in assay [5] (2 h after carrageenan) is given as 5.65 ± 0.39 mm. For the same molecule, the “Paw swelling thickness 3 h” value in assay [5] (3 h after carrageenan) is recorded as 6.11 ± 0.15 mm. Further, the “Paw swelling (right foot weight-left foot weight)” value in assay [5] (3 hours after carrageenan) was found to be 0.518 ± 0.05 g.
